# Conditions: human, in vivo
# Method: The synthetic triterpenoid bardoxolone methyl, also known as CDDO-Me and as “RTA 402,” has shown potent anti-inflammatory and anti-tumor properties in preclinical studies and in human clinical trials. […] In these studies bardoxolone methyl was administered orally in a crystalline form (“Form A”), once daily, at a variety of doses.
structure (smiles),measurement,setting,value
"COC(=O)[C@]12CCC(C)(C)C[C@H]1[C@H]1C(=O)C=C3[C@@]4(C)C=C(C#N)C(=O)C(C)(C)[C@@H]4CC[C@@]3(C)[C@]1(C)CC2 [Form A bardoxolone methyl, bardoxolone methyl]",oral bioavailability,,relatively low oral bioavailability
same,tolerability profile,po,excellent tolerability profile with very few drug-related side effects

# Source: patent publication US8747901B2 (Reata Pharmaceuticals, Inc., priority 2009, dated 2014)
